“Also recorded” adds a separate entry of the source.
What was measured:
Type in all cases: cell-based
METTL3 [1] = biological target: T1, METTL3 (Homo sapiens, UniProt Q86U44); test: m6A sensor system in HEK293T cells treated with METTL3 inhibitor; conditions: HEK293T cells expressing the m6A sensor system, after treatment
T1 construct: endogenous in cells; host or cells: HEK293T

METTL3 [2] = test: m6A sensor system in METTL3 degron cells treated with auxin; conditions: METTL3 degron HEK293T cells, auxin 48 hours, compared to DMSO-treated cells
Procedure: To confirm that the m^6A sensor is METTL3-dependent, the m^6A sensor system was expressed in HEK293T cells which contain an auxin-inducible degradation tag at the endogenous METTL3 locus (METTL3 degron cells). Cells were treated with auxin for 48 hours and then transfected with the m^6A sensor system. […] Conversely, overexpression of METTL3 causes increased GFP fluorescence, a higher GFP:GFP-DHFR ratio, and increased C-to-U editing of the sensor sequence (FIGS. 5A-5C).

NMD = test: m6A reporter mRNA levels after blocking nonsense-mediated decay (RT-qPCR); conditions: HEK293T cells expressing the m6A sensor system, CHX for 24 h
Procedure: HEK293T cells expressing the m6A sensor system were treated with CHX for 24 h to inhibit NMD, followed by RT-qPCR of the m^6A reporter mRNA.
The possibility that the m^6A reporter mRNA could be susceptible to nonsense-mediated decay (NMD), since editing of the m6A reporter mRNA produces premature stop codons, was investigated. However, this is unlikely since most NMD requires the presence of the exon junction complex (EJC), and the m^6A reporter transcript lacks introns.

APO1-YTH = test: Inducible APO1-YTH expression in HEK293T stable m6A reporter cell lines; conditions: time courses of dox induction
Source text: HEK293T stable cells were generated which express both the m^6A reporter and APO1-YTH. The m^6A reporter was constitutively expressed from the CMV reporter, while APO1-YTH was inducibly expressed after treatment of cells with doxycycline (dox).
Cyclophilin A (CycloA) is shown as a loading control.
Another embodiment of the present disclosure provides stable cell lines that express the m^6A reporter system as provided herein. To do this, stable cell lines expressing both the m^6A reporter and APO1-YTH were generated by transfecting HEK293T cells with a dual-promoter plasmid encoding both components of the reporter system. This plasmid drives m^6A reporter expression from the CMV promoter and APO1-YTH expression using an inducible […] promoter. However, any dual-promoter system could also be used and different promoters (inducible and constitutive) could also be used with this m^6A reporter system. The m^6A reporter system provided herein may also be applied in other mammalian and non-mammalian cell types as well.
Following selection of stable cells with puromycin resistance which was conferred by genomic integration of the plasmid, it was next sought to confirm that the reporter system works in the context of stable integration of the m^6A reporter and APO1-YTH components. […]

T1 sequence (Q86U44 2-580 limits assumed): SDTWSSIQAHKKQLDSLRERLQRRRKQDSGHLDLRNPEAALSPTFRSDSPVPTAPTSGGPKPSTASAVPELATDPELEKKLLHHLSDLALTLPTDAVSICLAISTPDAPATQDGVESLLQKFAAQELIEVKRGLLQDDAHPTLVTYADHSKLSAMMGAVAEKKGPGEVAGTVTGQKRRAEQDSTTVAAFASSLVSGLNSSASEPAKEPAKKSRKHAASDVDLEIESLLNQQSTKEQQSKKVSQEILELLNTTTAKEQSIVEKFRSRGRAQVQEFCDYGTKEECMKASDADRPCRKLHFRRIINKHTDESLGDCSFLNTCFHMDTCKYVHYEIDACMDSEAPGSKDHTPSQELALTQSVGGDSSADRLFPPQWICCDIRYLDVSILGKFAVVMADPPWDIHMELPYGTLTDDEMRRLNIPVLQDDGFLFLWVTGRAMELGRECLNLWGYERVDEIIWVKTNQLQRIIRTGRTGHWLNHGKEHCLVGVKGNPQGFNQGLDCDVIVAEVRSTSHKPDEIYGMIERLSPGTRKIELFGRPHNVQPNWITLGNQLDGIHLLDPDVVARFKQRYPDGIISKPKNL
T1 sequence (Q9HCE5 whole entry partner): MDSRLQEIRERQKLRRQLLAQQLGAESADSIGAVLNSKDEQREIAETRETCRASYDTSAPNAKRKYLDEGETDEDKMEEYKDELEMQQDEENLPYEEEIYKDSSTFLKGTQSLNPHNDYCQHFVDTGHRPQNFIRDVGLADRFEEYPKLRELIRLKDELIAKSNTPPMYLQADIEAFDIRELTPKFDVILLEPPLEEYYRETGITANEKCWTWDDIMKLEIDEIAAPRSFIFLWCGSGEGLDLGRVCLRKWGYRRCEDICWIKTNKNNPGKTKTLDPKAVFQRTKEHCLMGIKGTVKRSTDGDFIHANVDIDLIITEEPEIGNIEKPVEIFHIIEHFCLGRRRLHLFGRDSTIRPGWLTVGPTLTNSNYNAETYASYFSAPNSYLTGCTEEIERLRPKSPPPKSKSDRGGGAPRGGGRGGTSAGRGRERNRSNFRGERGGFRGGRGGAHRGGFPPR

STM2457 was tested, and the “C-to-U editing of the m6A sensor sequence (RT-PCR/Sanger sequencing)” value (“C-to-U editing … (RT-PCR/Sanger sequencing)” for short) (METTL3 [1]) was “lower levels of C-to-U editing; also recorded: reduced C-to-U editing”, the “GFP fluorescence of m6A sensor system” value (METTL3 [1]) was “reduces GFP fluorescence” and the “GFP protein (Western blot)” value (METTL3 [1]) was “reduced GFP protein; also recorded: reduction of GFP expression”.
For `O=C(O)Cc1c[nH]c2ccccc12` [auxin], the “C-to-U editing … (RT-PCR/Sanger sequencing)” value (METTL3 [2]) was “decreased C-to-U editing”, the “GFP:GFP-DHFR ratio (western blot)” value (METTL3 [2]) was “reduced GFP:GFP-DHFR ratio” and the “C-to-U editing … (RT-PCR/Sanger sequencing)” value (METTL3 [2]; listed as Auxin) was “reduced C-to-U editing”. The “GFP fluorescence of m6A sensor” value (METTL3 [2]; then transfected, assessed 24 hours later) was “greatly diminished; also recorded: reduced m^6A sensor fluorescence”.
`C[C@@H]1C[C@@H]([C@H](O)CC2CC(=O)NC(=O)C2)C(=O)[C@@H](C)C1` [cycloheximide] was tested, and the “levels of the m6A reporter mRNA (RT-qPCR)” value (NMD) was “did not cause changes”.
`C[C@H]1c2cccc(O)c2C(=O)C2=C(O)[C@]3(O)C(=O)C(C(N)=O)=C(O)[C@@H](N(C)C)[C@@H]3[C@@H](O)[C@@H]21` [doxycycline] was tested, and the “duration of dox treatment sufficient for APO1-YTH induction and EGFP fluorescence” value (APO1-YTH) was 24 h.
